Results reported in patent US10689344B2, “Biphenylamide derivative Hsp90 inhibitors” (University of Kansas, priority 2013, dated 2020).

Key:
[1] = tested on: SKBr3 (estrogen receptor negative, HER2 over-expressing breast cancer cells); experiment: Anti-proliferation assay (MTS/PMS, 72 h), SKBr3; type: cell-based; settings: Homo sapiens
Experimental: (§1) Cells were maintained in a 1:1 mixture of Advanced DMEM/F12 (Gibco) supplemented with non-essential amino acids, L-glutamine (2 mM), streptomycin (500 μg/mL), penicillin (100 units/mL), and 10% FBS. Cells were grown to confluence in a humidified atmosphere (37° C., 5% CO2), seeded (2000/well, 100 μL) in 96-well plates, and allowed to attach overnight. Compound at varying concentrations in DMSO (1% DMSO final concentration) was added, and cells were returned to the incubator for 72 h. At 72 h, the number of viable cells was determined using an MTS/PMS cell proliferation kit (Promega) per the manufacturer's instructions. Cells incubated in 1% DMSO were used at 100% proliferation, and values were adjusted accordingly. IC50 values were calculated from separate experiments performed in triplicate using GraphPad Prism.
(§2) Anti-proliferative studies with the compounds described herein were performed against the SKBr3 (estrogen receptor negative, HER2 over-expressing breast cancer cells) and MCF-7 (estrogen receptor positive breast cancer cells) breast cancer cell lines. […] In some embodiments, in contrast to the novobiocin derivatives, which usually manifest better anti-proliferative activities against the SKBr3 cell line, the biphenyl derivatives described herein were more efficacious against the MCF-7 cell line. In general, all substitutions on the phenyl ring were determined to be beneficial, consistent with the existence of a hydrophobic pocket in this region of the Hsp90 C-terminal binding site.

[2] = tested on: MCF-7 (estrogen receptor positive breast cancer cells); experiment: Anti-proliferation assay (MTS/PMS, 72 h), MCF-7; type: cell-based; settings: Homo sapiens
Experimental: as §1, §2

[3] = SK-BR-3, Table 1, ortho, meta and para biphenyl cores
[4] = MCF7, Table 1, ortho, meta and para biphenyl cores
[5] = SK-BR-3, Table 3, substituted para-para biphenyl core
[6] = MCF7, Table 3, substituted para-para biphenyl core
[7] = SK-BR-3, Table 6, para-para biphenyl core with substituted benzylamide
[8] = MCF7, Table 6, para-para biphenyl core with substituted benzylamide
[9] = SK-BR-3, Table 8, para-para biphenyl core with substituted biphenylamide group
[10] = MCF7, Table 8, para-para biphenyl core with substituted biphenylamide group
[11] = SK-BR-3, Table 11, heteroatom linked biphenyl core
[12] = MCF7, Table 11, heteroatom linked biphenyl core

CC(=O)Oc1ccc(C(=O)Nc2cccc(-c3cccc(OC4CCN(C)CC4)c3)c2)cc1CC=C(C)C [Compound 61f, 2-(3-methylbut-2-en-1-yl)-4-((3′-((1-methylpiperidin-4-yl)oxy)-[1,1′-biphenyl]-3-yl)carbamoyl)phenyl acetate]
IC50 [1, 3]: 1760 ± 160 nM
IC50 [2, 4]: 1700 ± 210 nM

COc1cccc(-c2cc(C(=O)Nc3ccc(-c4ccc(OC5CCN(C)CC5)cc4)cc3[N+](=O)[O-])ccc2OC)c1 [Compound 34d, 3′,6-dimethoxy-N-(4′-((1-methylpiperidin-4-yl)oxy)-3-nitro-[1,1′-biphenyl]-4-yl)-[1,1′-biphenyl]-3-carboxamide]
IC50 [1, 5]: 920 nM
IC50 [2, 6]: 1150 ± 10 nM

Cc1ccc(C(=O)Nc2ccc(-c3ccc(OC4CCN(C)CC4)cc3)cc2)cc1 [Compound 41e, 4-methyl-N-(4′-((1-methylpiperidin-4-yl)oxy)-[1,1′-biphenyl]-4-yl)benzamide]
IC50 [1, 7]: 980 ± 190 nM
IC50 [2, 8]: 1270 ± 130 nM

COc1cccc(-c2cc(C(=O)Nc3ccc(-c4ccc(OC5CC6CCC(C5)N6C)cc4)cc3)ccc2OC)c1 [Compound 56b, 3′,6-dimethoxy-N-(4′-(((1R,3s,5S)-8-methyl-8-azabicyclo[3.2.1]octan-3-yl)oxy)-[1,1′-biphenyl]-4-yl)-[1,1′-biphenyl]-3-carboxamide]
IC50 ([1]; SK-BR-3, Table 7, para-para biphenyl core with modified ether groups): 1670 ± 600 nM
IC50 ([2]; MCF7, Table 7, para-para biphenyl core with modified ether groups): 1320 ± 230 nM

COc1cccc(-c2cccc(C(=O)Nc3ccc(-c4ccc(OC5CCN(C)CC5)cc4)cc3)c2)c1 [Compound 49b, 3′-methoxy-N-(4′-((1-methylpiperidin-4-yl)oxy)-[1,1′-biphenyl]-4-yl)-[1,1′-biphenyl]-3-carboxamide]
IC50 [1, 9]: 810 ± 140 nM
IC50 [2, 10]: 1020 ± 80 nM

COc1cccc(-c2cc(C(=O)Nc3ccc(-c4ccc(OC5CCN(C)CC5)c(C)c4)cc3)ccc2OC)c1 [Compound 29a, 3′,6-dimethoxy-N-(3′-methyl-4′-((1-methylpiperidin-4-yl)oxy)-[1,1′-biphenyl]-4-yl)-[1,1′-biphenyl]-3-carboxamide]
IC50 [1, 5]: 830 ± 30 nM
IC50 [2, 6]: 1690 ± 80 nM

CN1CCC(Oc2ccc(-c3ccc(NC(=O)c4ccc(-c5ccccc5)cc4)cc3)cc2)CC1 [Compound 41s, N-(4′-((1-methylpiperidin-4-yl)oxy)-[1,1′-biphenyl]-4-yl)-[1,1′-biphenyl]-4-carboxamide]
IC50 [1, 7]: 4590 ± 60 nM
IC50 [2, 8]: 4440 ± 600 nM

COc1ccc(-c2cc(C(=O)Nc3ccc(-c4ccc(OC5CCN(C)CC5)cc4)cc3)ccc2OC)cc1 [Compound 49c, 4′,6-dimethoxy-N-(4′-((1-methylpiperidin-4-yl)oxy)-[1,1′-biphenyl]-4-yl)-[1,1′-biphenyl]-3-carboxamide]
IC50 [1, 9]: 630 ± 40 nM
IC50 [2, 10]: 790 ± 130 nM

CN1CCC(Oc2ccc(-c3ccc(NC(=O)c4ccc(I)cc4)cc3)cc2)CC1 [Compound 41d, 4-iodo-N-(4′-((1-methylpiperidin-4-yl)oxy)-[1,1′-biphenyl]-4-yl)benzamide]
IC50 [1, 7]: 310 ± 90 nM
IC50 [2, 8]: 580 ± 10 nM

CN1CCC(Oc2ccc(-c3ccc(NC(=O)c4cccc(-c5ccccc5)c4)cc3)cc2)CC1 [Compound 41r, N-(4′-((1-methylpiperidin-4-yl)oxy)-[1,1′-biphenyl]-4-yl)-[1,1′-biphenyl]-3-carboxamide]
IC50 [1, 7]: 730 ± 70 nM
IC50 [1, 9]: 730 ± 70 nM
IC50 [2, 8]: 1150 ± 180 nM
IC50 [2, 10]: 1150 ± 180 nM

Cc1ccc(C(=O)Nc2ccc(-c3ccc(OC4CCN(C)CC4)cc3)cc2)cc1I [Compound 41m, 3-iodo-4-methyl-N-(4′-((1-methylpiperidin-4-yl)oxy)-[1,1′-biphenyl]-4-yl)benzamide]
IC50 [1, 7]: 930 ± 200 nM
IC50 [2, 8]: 1170 ± 200 nM

CN1CCC(Oc2ccc(Nc3ccc(NC(=O)c4ccc5ccccc5c4)cc3)cc2)CC1
IC50 [1, 11]: 4600 ± 250 nM
IC50 [2, 12]: 2150 ± 10 nM

Cc1ccc(C(=O)Nc2ccc(-c3ccc(OC4CCN(C)CC4)cc3)cc2)cc1Cl [Compound 41k, 3-chloro-4-methyl-N-(4′-((1-methylpiperidin-4-yl)oxy)-[1,1′-biphenyl]-4-yl)benzamide]
IC50 [1, 7]: 1960 ± 240 nM
IC50 [2, 8]: 2280 ± 490 nM

COc1ccc(C(=O)Nc2ccc(-c3ccc(OC4CCN(C)CC4)cc3)cc2)cc1-c1cccc(OC(C)=O)c1 [Compound 49d, 2′-methoxy-5′-((4′-((1-methylpiperidin-4-yl)oxy)-[1,1′-biphenyl]-4-yl)carbamoyl)-[1,1′-biphenyl]-3-yl acetate]
IC50 [1, 9]: 270 ± 50 nM
IC50 [2, 10]: 620 ± 70 nM

CN1CCC(Oc2ccc(-c3ccc(NC(=O)c4ccc5ncccc5c4)cc3)cc2)CC1 [Compound 45b, N-(4′-((1-methylpiperidin-4-yl)oxy)-[1,1′-biphenyl]-4-yl)quinoline-6-carboxamide]
IC50 [1, 7]: 1310 ± 180 nM
IC50 [2, 8]: 2070 ± 160 nM

CN1CCC(Oc2ccc(-c3ccc(NC(=O)c4ccccc4-c4ccccc4)cc3)cc2)CC1 [Compound 41q, N-(4′-((1-methylpiperidin-4-yl)oxy)-[1,1′-biphenyl]-4-yl)-[1,1′-biphenyl]-2-carboxamide]
IC50 [1, 7]: 6260 ± 1540 nM
IC50 [2, 8]: 6670 ± 830 nM

COc1cccc(-c2cc(C(=O)Nc3ccc(-c4ccc(OC5CCN(C)CC5)cc4)c([N+](=O)[O-])c3)ccc2OC)c1 [Compound 34c, 3′,6-dimethoxy-N-(4′-((1-methylpiperidin-4-yl)oxy)-2-nitro-[1,1′-biphenyl]-4-yl)-[1,1′-biphenyl]-3-carboxamide]
IC50 [1, 5]: 2480 ± 770 nM
IC50 [2, 6]: 3320 ± 250 nM

COc1cccc(-c2cc(C(=O)Nc3ccc(-c4ccc(OC5CCN(C)CC5)cc4)c(OC)c3)ccc2OC)c1 [Compound 29g, 3′,6-dimethoxy-N-(2-methoxy-4′-((1-methylpiperidin-4-yl)oxy)-[1,1′-biphenyl]-4-yl)-[1,1′-biphenyl]-3-carboxamide]
IC50 [1, 5]: 900 ± 80 nM
IC50 [2, 6]: 1500 ± 80 nM

COc1cccc(-c2cc(C(=O)Nc3ccc(-c4ccc(OC5CCN(C)CC5)c([N+](=O)[O-])c4)cc3)ccc2OC)c1 [Compound 34a, 3′,6-dimethoxy-N-(4′-((1-methylpiperidin-4-yl)oxy)-3′-nitro-[1,1′-biphenyl]-4-yl)-[1,1′-biphenyl]-3-carboxamide]
IC50 [1, 5]: 1950 nM
IC50 [2, 6]: 1250 ± 280 nM

CC(=O)Oc1ccc(C(=O)Nc2ccc(-c3ccc(OC4CCN(C)CC4)cc3)cc2)cc1CC=C(C)C [Compound 61j, 2-(3-methylbut-2-en-1-yl)-4-((4′-((1-methylpiperidin-4-yl)oxy)-[1,1′-biphenyl]-4-yl)carbamoyl)phenyl acetate]
IC50 [1, 3]: 1820 ± 210 nM
IC50 [2, 4]: 1370 ± 180 nM

CN1CCC(Oc2ccc(-c3cccc(NC(=O)c4cccc(Cl)c4)c3)cc2)CC1 [Compound 6i, 3-Chloro-N-(4′-((1-methylpiperidin-4-yl)oxy)-[1,1′-biphenyl]-3-yl)benzamide]
IC50 ([1]; SK-BR-3, Table 2, para-meta biphenyl core with substituted benzylamide): 4290 ± 430 nM
IC50 ([2]; MCF7, Table 2, para-meta biphenyl core with substituted benzylamide): 2110 ± 420 nM

Cc1cc(C(=O)Nc2ccc(-c3ccc(OC4CCN(C)CC4)cc3)cc2)ccc1Cl [Compound 41j, 4-chloro-3-methyl-N-(4′-((1-methylpiperidin-4-yl)oxy)-[1,1′-biphenyl]-4-yl)benzamide]
IC50 [1, 7]: 1110 ± 420 nM
IC50 [2, 8]: 1030 ± 160 nM

COc1cccc(-c2cc(C(=O)Nc3ccc(-c4ccc(OC5CCN(C)CC5)cc4)cc3NC(C)=O)ccc2OC)c1 [Compound 39d, N-(3-acetamido-4′-((1-methylpiperidin-4-yl)oxy)-[1,1′-biphenyl]-4-yl)-3′,6-dimethoxy-[1,1′-biphenyl]-3-carboxamide]
IC50 [1, 5]: 3510 ± 560 nM
IC50 [2, 6]: 1660 ± 590 nM

COc1ccc(C(=O)Nc2cccc(-c3cccc(OC4CCN(C)CC4)c3)c2)cc1 [Compound 61h, 4-methoxy-N-(3′-((1-methylpiperidin-4-yl)oxy)-[1,1′-biphenyl]-3-yl)benzamide]
IC50 [1, 3]: 13200 ± 1970 nM
IC50 [2, 4]: 8200 nM

COc1cccc(-c2cc(C(=O)Nc3ccc(-c4ccc(OC5CCN(C)CC5)cc4)cc3OC)ccc2OC)c1 [Compound 29h, 3′,6-dimethoxy-N-(3-methoxy-4′-((1-methylpiperidin-4-yl)oxy)-[1,1′-biphenyl]-4-yl)-[1,1′-biphenyl]-3-carboxamide]
IC50 [1, 5]: 3920 ± 210 nM
IC50 [2, 6]: 1220 ± 40 nM

CN1CCC(Oc2ccc(Nc3ccc(NC(=O)c4ccc(Cl)cc4)cc3)cc2)CC1
IC50 [1, 11]: 6440 ± 2610 nM
IC50 [2, 12]: 7100 nM

CN1CCC(Oc2ccc(-c3ccc(NC(=O)c4cc(Cl)cc(Cl)c4)cc3)cc2)CC1 [Compound 41o, 3,5-dichloro-N-(4′-((1-methylpiperidin-4-yl)oxy)-[1,1′-biphenyl]-4-yl)benzamide]
IC50 [1, 7]: 810 ± 280 nM
IC50 [2, 8]: 1680 ± 130 nM

COc1cccc(-c2cc(C(=O)Nc3ccc(-c4ccc(OC5CCN(C)CC5)cc4C)cc3)ccc2OC)c1 [Compound 29b, 3′,6-dimethoxy-N-(2′-methyl-4′-((1-methylpiperidin-4-yl)oxy)-[1,1′-biphenyl]-4-yl)-[1,1′-biphenyl]-3-carboxamide]
IC50 [1, 5]: 1180 ± 110 nM
IC50 [2, 6]: 1210 ± 30 nM
